Assays:
[1] = test system: platinum-resistant ex vivo spheroid cultures of patients DF3266, DF3288, DF3291; experiment: Drug sensitivity testing with the growth in low attachment (GILA) assay; type: cell-based; conditions: for Sensitivity of spheroid cultures: all spheroid cultures, similar dose range, cisplatin excepted in DF3266 and DF3288
Method: (§1) FIG. 6A-FIG. 6G are a series of graphs and images depicting the impact of JAK/STAT-inhibition on spheroid formation, invasion and killing ex vivo and in vitro. FIG. 6A a histogram (FIG. 11B), showing drug screening with 14 compounds (at 1 μM) inhibiting the JAK/STAT pathway in OVACR4. Relative viability compared to DMSO control measured by CTG. […] The same library was screened in 2D-cultures of OVACR4 (FIG. 11A), and 2D-cultures of OVACR8 (FIG. 11C) and 3D-cultures of OVACR8 (FIG. 11D). FIG. 6B is a series of plots showing drug sensitivity testing using the GILA assay in platinum-resistant ex vivo spheroid cultures of patients DF3291 and DF3266, The X-axis indicates the log μM concentration of drugs indicated in the legend, Y-axis indicates the percentage of luminescence signal as indicator for viability relatively to DMSO treated cells. In both patients, half maximal effective concentration (EC50) were ˜100 nM and ˜10 nM, respectively, while other drugs routinely used for the treatment of (platinum-resistant) ovarian cancer had EC50>10 μM. FIG. 6C is a series of images of microscopic analysis of spheroids with different drug treatments to highlight the morphologic changes during therapy with drugs listed. Inhibition of JAK/STAT pathway disrupts ex vivo spheroid cultures. […] The X-axis indicates established ovarian cancer cell line ID. Y-axis indicates the relative number of formed spheroids when treated with either JSI-124 or carboplatin compared to untreated parental controls. Error bars indicate the standard deviation from the mean number of spheroids. […] JAK/STAT inhibition prevents spheroid formation. […] The Y-axis indicates the clearance ability (using arbitrary units). 20 spheroids clusters were analyzed for each iteration. Data is shown as mean (horizontal bar), interquartile range (box), and minimum and maximum (whiskers). Statistical analysis was performed using 1-way analysis of variance (ANOVA) and post hoc Tukey-Kramer **P<0.05. […] FIG. 6G is a histogram showing the inhibition of the JAK/STAT pathway.
Single-cell RNA-sequencing was performed on these platinum-resistant patient samples, using the growth in low attachment (GILA) assay (Rotem et al., 2015 Proc. Natl. Acad. Sci. U.S.A, 112:5708-5713; B. Izar and A. Rotem, 2016 Curr. Protoc. Mol. Biol., 116:28.8.1-28.8.12). […] In contrast, all spheroid cultures were resistant to carboplatin, cisplatin, olaparib and paclitaxel at a similar dose range, with the exception of cisplatin with an EC50 of ˜10 μM in patients DF3266 and DF3288.

[2] = test system: PDX models DF20, DF68, DF101; experiment: Carboplatin treatment of ovarian cancer PDX models, tumor volume and BLI; type: in vivo, mice; conditions: followed by subsequent tumor outgrowth
Method: FIG. 4A-FIG. 4E are a series of graphs depicting comparisons of expression profiles across patient-derived xenograft (PDX) models before and after recurrence. […] FIG. 4A is a plot of tumor burden of PDX model DF20. PDX model DF20 response to carboplatin was assessed. Triangles indicate vehicle mice, squares indicate relapsed mice, and asterisks indicates MRD animals. MRD and relapsed tumors were treated with three cycles of carboplatin and harvested for single-cell RNA-sequencing at the last indicated time point in this graph. FIG. 4B is a heatmap showing the similarities and clustering of average expression profiles for each of the samples corresponding to three PDX models, with samples collected before treatments (vehicle), MRD and full relapse for each of the models. FIG. 4C is a plot of expression of highly-abundant transcripts in single-cells indicate disproportionally high expression of key nodes of the JAK/STAT pathway, including STAT2 and STAT3, and others.
Next, platinum-resistance was modeled using PDX-models. […] Single-cells were harvested for sequencing from untreated animals (vehicle) and the carboplatin-treated animals were monitored for tumor regression and relapse. […] Accordingly, gene sets were detected which were consistently altered across two or three samples of MRD (FIG. 4D) or relapse (FIG. 4E), and contribute to drug resistance or tumor relapse. […]

[3] = test system: established ovarian cancer cell lines (OVCAR4, OVCAR8, OVASHO, TYKNU, Kuramachi); experiment: Spheroid formation in low adherent surface culture; type: cell-based; conditions: same treatment doses as JSI-124
Method: as §1, with “pathway. […]” for “pathway.”

SMILES | Sensitivity of spheroid cultures [1] | EC50 ([1]; patients DF3266 and DF3288, read-out: EC50) | Tumor response (tumor volume, BLI signal) [2] | Effect on spheroids formation [3]
CC(=O)O[C@H]1C(=O)[C@@]2(C)[C@H]([C@H](OC(=O)c3ccccc3)[C@]3(O)C[C@H](OC(=O)[C@H](O)[C@@H](NC(=O)c4ccccc4)c4ccccc4)C(C)=C1C3(C)C)[C@]1(OC(C)=O)CO[C@@H]1C[C@@H]2O [paclitaxel] | resistant |  |  | 
O=C(c1cc(Cc2n[nH]c(=O)c3ccccc23)ccc1F)N1CCN(C(=O)C2CC2)CC1 [olaparib] | resistant |  |  | 
N.N.[Cl][Pt][Cl] [cisplatin] | resistant | ~10 µM |  | 
N.N.O=C([O-])C1(C(=O)[O-])CCC1.[Pt+2] [carboplatin] | resistant |  | brisk response | modest to no effects
